The values that follow come from US5250194A, “N-dodecyl heterocyclic compounds useful as industrial microbicides and preservatives” (Buckman Laboratories International, Inc., priority 1992, dated 1993).

The structures appear in SMILES notation. Values after ≈ are worked out from the molar mass of the structure shown. Read-outs that look alike come from different tables or passages of the source.

For assay [1] the following is noted: Firestone and Pisano; cited from earlier work.
Assay [2] concerns P. aeruginosa. Put plainly: Basal salts method, minimum inhibitory concentration. The following applies: basal salts solution. It is filed as cell-based. The procedure: The preferred compounds of the present invention were tested by the pulp substrate method and basal salts method described in U.S. Pat. No. 2,881,070 at column 5, beginning at line 12 and extending to column 6, line 53. The disclosure of U.S. Pat. No. 2,881,070 is specifically incorporated by reference herein. […] The minimum inhibitory concentrations are those in which a percentage kill of at least 80% is obtained.

Assay [3] concerns Aspergillus niger. Kind of assay: Fungal growth inhibition, minimum inhibitory concentration. Type of assay: cell-based. The following applies: pH 6.0, completely prevented growth, read-out: Minimum inhibitory concentration against fungi. Here is the method:
The microorganism growth inhibiting activity of N-dodecyl heterocyclic compounds on the fungus Aspergillus niger was evaluated.

For assay [4], the system named is E. aerogenes. Put plainly: Pulp substrate method, minimum inhibitory concentration. Type of assay: cell-based. An excerpt:
The minimum inhibitory concentrations are those in which a percentage kill of at least 80% is obtained.

Assay [5] has as its system Chlorella pyrenoidosa. Kind of assay: Algae growth inhibition in Difco Algae Broth. It is filed as cell-based. The following applies: Auxenochlorella pyrenoidosa, 672 h. The procedure: (§1) The growth inhibiting activity of the method of the invention against the three algae Chlorella pyrenoidosa, Chlorococcum hypnosporum and Phormidium inundatum was evaluated in Difco Algae Broth, the content of which was as follows:
(§2) Forty-gram portions of the algae medium were added to 250 mL Pyrex Erlenmeyer flasks fitted with loose metal caps and then sterilized. Each of the following substances wa then added to the flasks in the order listed:
(§3) 1. Sterile algae medium as required to bring the total weight of the contents of each flask to 50 grams, after allowing for all subsequent additions specified below.
(§4) 2. A solution of the N-dodecyl heterocyclic toxicant or of a control agent to be evaluated in each test, to give the concentration desired in parts per million by weight.
(§5) 3. Chlorella pyrenoidosa, Chlorococcum hypnosporum and Phormidium inundatum in amounts sufficient to give excellent growth in the controls after 14 days. This was achieved by adding 1 milliliter of a 14 day old culture having luxuriant growth. The Chlorella pyrenoidosa culture was obtained from American Type Culture Collection No. 7516; Chlorococcum hynosporum, from the University of Texas at Austin; and Phormidium inundatum, Wisconsin No. 1093, from the University of Washington.
(§6) As a control experiment, WSCP was used as a positive control agent. WSCP is a known toxicant which kills C. pyrenoidosa at 2 ppm, C. hypnosporum at 2 ppm and P. inundatum at 10 ppm. Control experiments were also carried out where no toxicants were also employed. In the algicidal tests the growth of algae in the nutrient medium is lush green and can be seen with the naked eye. Because the minimum inhibitory concentrations of the compounds in this example are those which result in complete inhibition evaluation of the test results is not subjective.
(§7) After the inoculum of the test algae was added, the flasks were incubated at a temperature of 28° ±2° C. under fluorescent illumination of 250 foot-candle intensity (8 hours light, 16 hours darkness) for a period adequate for growth in the controls (those portions of medium which contained no toxicant). Observations of growth were made at 7-day intervals. Minimum inhibitory concentrations are those that prevented complete growth after 28 days.

The subject of assay [6] is Chlorococcum hypnosporum. Kind of assay: Algae growth inhibition in Difco Algae Broth. Type of assay: cell-based. Particulars: 672 h. Here is the method:
as §1, §2, §3, §4, §5, §6, §7

The conditions of assay [7]: Barker and Hadgraft; cited from earlier work.
Assay [8] concerns cholesterol biosynthesis. The following applies: rat liver; Baggeley et al.; cited from earlier work.
In assay [9] the test system is Phormidium inundatum. Kind of assay: Algae growth inhibition in Difco Algae Broth. Type of assay: cell-based. The following applies: 672 h. Here is the method:
as §1, §2, §3, §4, §5, §6, §7

The test system of assay [10] is epoxidation of aldrin. Particulars: rat liver; Wilkinson et al.; cited from earlier work.
Setting [11] is: C. pyrenoidosa, pH 7.0, 28 days, read-out: Minimum inhibitory concentration against algae.
Where [12] appears, read: C. hypnosporum, pH 7.0, 28 days, read-out: Minimum inhibitory concentration against algae.
[13] abbreviates: P. inundatum, pH 7.0, 28 days, read-out: Minimum inhibitory concentration against algae.
Setting [14] is: pH 7, read-out: Minimum inhibitory concentration against algae.

On to `CCCCCCCCCCCCN1CCOCC1` [Compound 1, N-Dodecylmorpholine], for which the “lysosomotropic detergent, useful as anti-cancer compounds and spermicides” value in assay [1] is on record as “lysosomotropic detergents”. In addition, the Minimum inhibitory concentration in assay [2] (pH 6.0, at least 80% kill) was 8; in assay [2] (pH 8.0, at least 80% kill), 40; in [4] (pH 6.0, at least 80% kill) it was 25; in assay [4] (pH 8.0, at least 80% kill), 25. Moreover, the MIC was more than 100 µg/mL in [3], 1 µg/mL (≈ 3.91 µM) in [5] (setting [11]) and 1 µg/mL (≈ 3.91 µM) in assay [6] (setting [12]). In addition, the “help the transport of anionic drugs” value in assay [7] is reported as “help the transport of anionic drugs”.

As for `CCCCCCCCCCCCn1ccnc1` [Compound 2, N-Dodecylimidazole], the “inhibitor of cholesterol biosynthesis” value in [8] is “inhibitor of cholesterol biosynthesis in rat liver”. Besides, the “lysosomotropic detergent, useful as anti-cancer compounds and spermicides” value in assay [1] is “lysosomotropic detergents”. Further, the Minimum inhibitory concentration in assay [2] (pH 6.0, at least 80% kill) is on record as 4; in [2] (pH 8.0, at least 80% kill), 10; in assay [4] (pH 6.0, at least 80% kill), 1000; in assay [4] (pH 8.0, at least 80% kill) it was more than 1000. Besides, the MIC in assay [3] came out at 32 µg/mL (≈ 135 µM); in [9] (setting [13]), 2 µg/mL (≈ 8.46 µM); in assay [5] (setting [11]), 0.5 µg/mL (≈ 2.12 µM); in assay [6] (setting [12]) it was 0.7 µg/mL (≈ 2.96 µM). For the same molecule, the “inhibitor of epoxidation of aldrin” value in assay [10] is “inhibitor of epoxidation of aldrin of rat liver”.

Turning to `CCCCCCCCCCCCN1CC(C)OC(C)C1` (centres unmarked) [Compound 3, N-dodecyl-2,6-dimethylmorpholine], the MIC in assay [3] is 128 µg/mL (≈ 451 µM); in assay [9] (setting [13]), 1000 µg/mL (≈ 3530 µM); in assay [5] (setting [11]) it was 10 µg/mL (≈ 35.3 µM); in assay [6] (setting [12]), less than 1 µg/mL. The Minimum inhibitory concentration in assay [4] (pH 6.0, at least 80% kill) amounted to 1000; in assay [4] (pH 8.0, at least 80% kill), 1000.

Consider `CCCCCCCCCCCCN1CC(CCl)OC1=O` (centres unmarked) [Compound 4, N-dodecyl-5-chloromethyl-2-oxazolidinone], for which the MIC in assay [3] is more than 512 µg/mL; in [9] (setting [13]) it was 100 µg/mL (≈ 329 µM); in [5] (setting [11]), 100 µg/mL (≈ 329 µM); in assay [6] (setting [12]) it was 100 µg/mL (≈ 329 µM). Also, the Minimum inhibitory concentration in [4] (pH 6.0, at least 80% kill) is given as 1000; in [4] (pH 8.0, at least 80% kill), 1000.

Take `CCCCCCCCCCCCN1CCCC1=O` [Compound 5, N-Dodecyl-2-pyrrolidinone]: the MIC in assay [3] was determined as 32 µg/mL (≈ 126 µM); in assay [9] (setting [13]), 10 µg/mL (≈ 39.5 µM); in assay [5] (setting [11]), 10 µg/mL (≈ 39.5 µM); in assay [6] (setting [12]), 10 µg/mL (≈ 39.5 µM). Further, the Minimum inhibitory concentration worked out at 1000 in assay [4] (pH 6.0, at least 80% kill) and 1000 in assay [4] (pH 8.0, at least 80% kill).

In the case of `CCCCCCCCCCCCN1CCCCCC1` [Compound 6, N-Dodecylhexamethyleneimine], the MIC in assay [3] turned out to be 256 µg/mL (≈ 957 µM); in assay [9] (setting [14]), 10 µg/mL (≈ 37.4 µM); in [5] (setting [14]), 1 µg/mL (≈ 3.74 µM); in assay [6] (setting [14]) it was 1 µg/mL (≈ 3.74 µM). Also, the Minimum inhibitory concentration in assay [4] (pH 6.0, at least 80% kill) was more than 1000; in [4] (pH 8.0, at least 80% kill) it was 1000.

As for `CCCCCCCCCCCCN1CCCC1` [Compound 7, N-Dodecylpyrrolidine], the MIC in assay [3] was 128 µg/mL (≈ 535 µM); in [9] (setting [14]), 1 µg/mL (≈ 4.18 µM); in assay [5] (setting [14]), 1 µg/mL (≈ 4.18 µM); in assay [6] (setting [14]), 1 µg/mL (≈ 4.18 µM). The Minimum inhibitory concentration in [4] (pH 6.0, at least 80% kill) is recorded as 1000; in assay [4] (pH 8.0, at least 80% kill), more than 1000.

As to `CCCCCCCCCCCCN1CCCC(C)C1` (centres unmarked) [Compound 8, N-dodecyl-3-methylpiperidine], the MIC amounted to 256 µg/mL (≈ 957 µM) in assay [3], 10 µg/mL (≈ 37.4 µM) in assay [9] (setting [13]), 10 µg/mL (≈ 37.4 µM) in [5] (setting [11]) and 1 µg/mL (≈ 3.74 µM) in [6] (setting [12]). For the same molecule, the Minimum inhibitory concentration in assay [4] (pH 6.0, at least 80% kill) is recorded as 1000; in assay [4] (pH 8.0, at least 80% kill) it was more than 1000.

On to `CCCCCCCCCCCCN1CCCCC1` [Compound 9, N-Dodecylpiperidine], for which the MIC in [3] was 32 µg/mL (≈ 126 µM); in [9] (setting [14]), 10 µg/mL (≈ 39.5 µM); in [5] (setting [14]), 1 µg/mL (≈ 3.95 µM); in assay [6] (setting [14]) it was 1 µg/mL (≈ 3.95 µM). The Minimum inhibitory concentration in assay [4] (pH 6.0, at least 80% kill) is listed as 1000; in [4] (pH 8.0, at least 80% kill), 1000.

With `CCCCCCCCCCCCN1CCC(C)CC1` [Compound 10, N-Dodecyl-4-methylpiperidine], the MIC in assay [3] was 1000 µg/mL (≈ 3740 µM); in [9] (setting [13]), less than 1 µg/mL; in assay [5] (setting [11]), less than 1 µg/mL; in [6] (setting [12]), less than 1 µg/mL. Besides, the Minimum inhibitory concentration in [4] (pH 6.0, at least 80% kill) is 100; in [4] (pH 8.0, at least 80% kill) it was more than 1000.

`CCCCCCCCCCCCN1CCCCC1C` (centres unmarked) [Compound 11, N-Dodecyl-2-methylpiperidine]: the MIC in assay [3] is 1000 µg/mL (≈ 3740 µM); in [9] (setting [14]), 5 µg/mL (≈ 18.7 µM); in assay [5] (setting [14]) it was less than 1 µg/mL; in assay [6] (setting [14]), less than 1 µg/mL. Besides, the Minimum inhibitory concentration in assay [4] (pH 6.0, at least 80% kill) is 100; in [4] (pH 8.0, at least 80% kill), more than 1000.
